Reference: patent US9157906B2, “Phosphodiesterase activity and regulation of phosphodiesterase 1B-mediated signaling in brain” (THE ROCKEFELLER UNIVERSITY, priority 2001, dated 2015)
Where a name gives a salt, the structure may show the parent alone.

Key:
DARPP-32 at Thr34 = assay: Phosphorylation of DARPP-32 at Thr34 in striatal slices, immunoblot with phosphorylation state-specific antibodies; assay type: cell-based, mouse; conditions: for increase in levels of phospho-Thr34 DARPP-32 and phospho-Ser845 GluR1: forskolin (10, unit not given)
Description: (§1) Male PDE1B−/− (null) and WT mice (8-12 weeks of age) were decapitated. The brain was transferred rapidly to an ice-cold surface, blocked, and fixed to the cutting surface of a Vibratome (Ted Pella, Redding, Calif.) maintained at 4° C. The brain was submersed in cold, oxygenated (95% O2/5% CO2) Krebs' bicarbonate buffer of the following composition (in mM): 125 NaCl, 5KCl, 26 NaHCO3, 1.5 CaCl2, 1.5 MgSO4, and 10 glucose, pH 7.4. Coronal mouse brain sections (400 μm in thickness) were cut and pooled in cold buffer. Striatal or nucleus accumbens slices were cut from the coronal sections under a dissecting microscope. Individual slices were preincubated in fresh buffer for 15 min at 30° C.; the buffer was replaced, and preincubation continued for an additional 30 min. […] Slices were frozen immediately in liquid nitrogen and stored at −80° C. until assayed.
Frozen slices were sonicated in homogenization buffer containing 1% SDS. Small aliquots of the homogenate were retained for protein determination by standard assays using bovine serum albumin as the standard. Equal amounts of protein (50 μg) were loaded onto 10% acrylamide gels, separated by SDS/PAGE, and transferred to nitrocellulose membranes by a method described by Tobin et al. (1979. Proc. Natl. Acad. Sci, USA 76:4350-4354). […]
(§2) Chemiluminescence was detected by autoradiography and bands were quantified by analysis of scanned images using NIH Image 1.52 software. Because the linear range for quantitation of ECL signals by densitometry is limited, several film exposures were obtained for each set of samples to insure that the signals were within a density range that allowed for accurate quantitation. […]

[1] = tested on: D1-mediated phosphorylation; assay: D1-mediated phosphorylation in nucleus accumbens slices; assay type: cell-based, mouse; conditions: D1 receptor agonist
Description: Male PDE1B−/− (null) and WT mice (8-12 weeks of age) were decapitated. The brain was transferred rapidly to an ice-cold surface, blocked, and fixed to the cutting surface of a Vibratome (Ted Pella, Redding, Calif.) maintained at 4° C. The brain was submersed in cold, oxygenated (95% O2/5% CO2) Krebs' bicarbonate buffer of the following composition (in mM): 125 NaCl, 5KCl, 26 NaHCO3, 1.5 CaCl2, 1.5 MgSO4, and 10 glucose, pH 7.4. Coronal mouse brain sections (400 μm in thickness) were cut and pooled in cold buffer. Striatal or nucleus accumbens slices were cut from the coronal sections under a dissecting microscope. Individual slices were preincubated in fresh buffer for 15 min at 30° C.; the buffer was replaced, and preincubation continued for an additional 30 min. At the end of this second preincubation period the buffer was replaced with Krebs' buffer or buffer containing test substances for 5 min. Slices were frozen immediately in liquid nitrogen and stored at −80° C. until assayed. […]
as §2

[2] = tested on: GluR1 AMPA receptor at Ser845; assay: Phosphorylation of GluR1 AMPA receptor at Ser845 in striatal slices, immunoblot with phosphorylation state-specific antibodies; assay type: cell-based, mouse; conditions: striatal slices of PDE1B null mice; 10 μM, 10 minutes
Description: as §1
Frozen slices were sonicated in homogenization buffer containing 1% SDS. […]
as §2

PDE1B null mice = assay: Methamphetamine-stimulated horizontal locomotor activity (Digiscan apparatus); conditions: 1 mg/kg subcutaneous

C=C[C@@]1(C)CC(=O)[C@]2(O)[C@@]3(C)[C@@H](O)CCC(C)(C)[C@@H]3[C@H](O)[C@H](OC(C)=O)[C@@]2(C)O1 [Forskolin]
increase in levels of phospho-Thr34 DARPP-32 and phospho-Ser845 GluR1 (DARPP-32 at Thr34; striatal slices from PDE1B null mice): 65 fold | increase in levels of phospho-Thr34 DARPP-32 and phospho-Ser845 GluR1 (DARPP-32 at Thr34; striatal slices from wild-type mice): 21 fold

Oc1cc2c(c(Cl)c1O)CCNCC2c1ccccc1 (stereo not drawn) [SKF81297]
D1-mediated phosphorylation in PDE1B null mice as compared to wild-type mice [1]: enhanced | increase for phospho-Ser845 as compared to controls [2]: 13 fold | increase for phospho-Thr34 as compared to controls (DARPP-32 at Thr34; striatal slices of PDE1B null mice, 10 μM, 10 minutes): 15 fold

CN[C@@H](C)Cc1ccccc1 [methamphetamine, d-methamphetamine hydrochloride]
duration of stimulated hyperactivity response after treatment (PDE1B null mice): 90 min
